Values quoted from earlier work in patent publication US20050065130A1, “Pharmaceutical compositions and methods comprising combinations of 2-alkylidene-19-nor-vitamin D derivatives and a cyclooxgenase-2 inhibitor” (Pfizer Inc., priority 2003, published 2005).

SMILES | serum calcium value (as printed: twice the dose, at the 130 pmol dose) [mg/100 ml] | bone calcium mobilization (in words) (chronic mode 7 days, both dose levels (130 and 260 pmol/day)) | activity on bone calcium mobilization (serum calcium), times that of the native hormone 1,25-(OH)2D3 (relative to 1,25-(OH)2D3, chronic mode 7 days)
C=C1/C(=C\C=C2/CCC[C@]3(C)[C@@H]([C@H](C)CCCC(C)(C)O)CC[C@@H]23)C[C@@H](O)C[C@@H]1O [1,25-(OH)2D3, 1,25-dihydroxyvitamin D3, reference compound] | 13.8 |  | 
C=C1[C@H](O)CC(=C/C=C2\CCC[C@]3(C)[C@@H]([C@H](C)CCCC(C)(C)O)CC[C@@H]23)C[C@H]1O [2-Methylene-19-Nor-1,25-(OH)2D3, 1α,25-dihydroxy-2-methylene-19-nor-vitamin D3] |  | extremely strong | 10-100 times
